Test results as given in paper PMC7566913, “Dual Gene Delivery Reagents From Antiproliferative Alkylphospholipids for Combined Antitumor Therapy” (Frontiers in Chemistry, 2020).
Values joined by “and” are separate entries in the source; they are usually repeats but may differ in a detail not shown here. Identical values can stand only once. Like-named read-outs stand apart in the source and are kept apart here.

Key:
[1] = CMC/CAC by pyrene fluorescent probe technique in ultrapure water; assay type: physicochemical; settings: pyrene fluorescence
Experimental: The pro-APL molecules have been specifically engineered so they can be metabolized in situ under a biological stimulus to revert to the parent APL with antiproliferative activity. […] We thus aimed to determine the self-assembly properties of the APL prodrugs. […] Pyrene is a probe which fluorescence is sensitive to the polarity of the solubilizing medium. […] Fluorescence measurements were carried out in ultrapure water and data obtained for the various APLs and their prodrugs are shown in Table 2.
Pro-APLs Self-Assembly Properties
Starting from a lipid film, compounds were […]

[2] = test system: 16HBE cells; experiment: Cytotoxicity, MTT assay, 16HBE; assay type: cell-based, human; settings: 24 h at 37°C
Experimental: (§1) The cells were exposed for a 24-h period to increasing concentration of the pro-APLs, ranging from 500 nM to 1 mM, and cell viability was assessed using the MTT colorimetric assay (Mosmann, [1983]). For the three cell lines, viability decreased in a dose-dependent manner in response to APLs and pro-APLs (Supplementary Figures 2–4). Using the best-fit regression curve method, the IC50 value (concentration that provokes 50% inhibition of the cell growth) was calculated for each compound (Table 4). The three cell lines responded to the compounds with varying sensitivities. […] This is attributed to enzyme-mediated hydrolysis of the pro-APL compounds in the complemented culture medium or in the intracellular compartment, competing with pure pH-controlled chemical hydrolysis. According to its structure, a pro-APL may or not be a substrate for specific lipases and, thus, may or not be hydrolyzed into the parent cytotoxic compound. […]
(§2) At confluency, cells were released […]
(§3) Cells were seeded into 96-well plates (Becton-Dickinson) at the required density (vide supra) in 100 µL of serum containing culture medium. […]
(§4) Mitochondrial activity measurements (MTT assay) was used to assess cytotoxicity of the compounds.
(§5) Lipid samples were prepared from a lipid film (3.6 µmol of compound evaporated from an ethanolic solution) hydrated with aqueous glucose 5 % and vigorously vortexed for 20 s before serial dilution in aqueous glucose 5 %. For addition of lipid samples to cell culture, part of the culture medium in the culture plates prepared the day before (25 µL) was removed and replaced by lipid samples (25 µL). Negative control was obtained by adding glucose 5 % to the cells instead of lipoplexes.
(§6) After a 24-h incubation period at 37 °C, culture supernatant was removed, cells were carefully washed with PBS and MTT (100 µL, 0.5 mg/mL) in complete culture medium was added. After a 1-h incubation period at 37 °C, the MTT sol ution was removed and DMSO (100 µL) was added to lyse cells and dissolve reduced MTT. Intensity of MTT reduction was then evaluated by measuring absorbance at 492 nm. Viability of cells treated with lipids or lipoplexes was expressed as the percentage of the absorbance measured in untreated cells. Value for each sample is the mean of triplicate determinations (± SD). IC50 values were determined within the 95 % confidence interval using nonlinear regression analysis with the GraphPad Prism software (GraphPad Software, San […]
(§7) All data are representative of a triplicate determination and are presented as the mean ± SD.
(§8) Statistical significance between treatments was assessed by one-way analysis of variance (ANOVA) followed by the Dunnett multiple comparison test, using the Kaleidagraph 4.5 software (Synergy Software, Reading, PA, USA). Data were considered as statistically significant for p value less than

[3] = Particle size and zeta potential of lipoplexes by DLS; assay type: physicochemical; settings: lipoplexes with pCMV-Gluc, 25 °C, 5 % glucose, N/P 3, 1 molar equivalent of DOPE
Description: The capacity of the pro-APLs to interact electrostatically with nucleic acids and form lipoplexes was checked by standard agarose gel electrophoresis. […] The size (hydrodynamic diameter) and charge (zeta potential, ζ) of the lipoplexes prepared at an N/P ratio of 3 with one molar equivalent of dioleoyl-sn-glycero-3-phosphatidylethanolamine (DOPE), a lipid with fusogenic properties (Hui et al., [1996]; Zuhorn et al., [2005]), were investigated by DLS (Supplementary Table 1).
as measured by DLS. Lipoplexes were prepared at 25 °C, in 5 % glucose, at a N/P ratio of 3 and with
1 molar equivalent of DOPE.
(Gaillard et al., 2019). Data are the mean of three independent measurements (± SD).

[4] = test system: A549 cells; experiment: Cytotoxicity, MTT assay, A549; assay type: cell-based, human; settings: A549, 24 h at 37°C
Experimental: as §1, §2, §3, §4, §5, §6, §7, §8

[5] = Hydrolytic stability of the APL prodrugs monitored by 31P-NMR; assay type: physicochemical; settings: for Hydrolytic stability after extended incubation: pH 7.4 and pH 4.5, 31 days at 25°C; for half-life: extrapolated from the experimental data, read-out: t1/2 (time needed for 50% hydrolysis) (converted)
Description: Aqueous formulation of the APL prodrugs produces nanosized lipid aggregates that most likely enter cells through the endocytosis pathway. To produce the expected intrinsic antineoplastic effect, APL-derived phosphotriesters need to be processed into the bioactive parent APLs. The hydrolysis of the prodrugs may be under the control of a chemical stimulus, e.g., a pH decrease as observed during the maturation of endosomes, or of degradation enzymes that massively enter the endosome compartment when continuing to lysosomes. To get some information on the transformation of pro-APLs into APLs, we monitored the hydrolysis of these compounds over time, at pH 7.4 and 4.5, conditions that mimick the extracellular milieu and the environment of the late endosome, respectively. This monitoring was realized using ^31P-NMR spectroscopy, according to a previously reported method (Pierrat et al., [2013b]). Whatever the compound investigated, only one single ^31P resonance did appear during the course of the experiments, corresponding to that of the parent APL. This confirmed that hydrolysis of the pro-APLs selectively occurred at the acetal center. […] As a general trend, hydrolysis of the pro-APLs was […] under neutral conditions (i.e., pH 7.4) than under acidic ones (i.e., pH 4.5). […] Besides, substitution of one hydrogen atom with a methyl group on the acetal bridge accelerated the rate of hydrolysis of the prodrugs. […] Indeed, in biological media, the enzyme-mediated hydrolysis of such compounds can proceed far quicker than “simple” chemical hydrolysis under pH control (Pierrat et al., [2012]). […]

[6] = test system: H292 cells; experiment: Cytotoxicity, MTT assay, H292; assay type: cell-based, human
Experimental: as §1, §2, §3, §4, §5, §6, §7, §8

[7] = test system: 16HBE cells; parameters: method as in Gaillard et al., 2019; settings: 24 h at 37°C, MTT assay, ref Gaillard et al., 2019; cited from earlier work
[8] = parameters: method as in Gaillard et al., 2019; settings: ref Gaillard et al., 2019, cited from earlier work
[9] = test system: A549 cells; parameters: method as in Gaillard et al., 2019; settings: A549, 24 h at 37°C, MTT assay; ref Gaillard et al., 2019; cited from earlier work
[10] = test system: sheep RBC; settings: cited from earlier work
[11] = test system: H292 cells; parameters: method as in Gaillard et al., 2019; settings: H292, 24 h at 37°C, MTT assay; ref Gaillard et al., 2019; cited from earlier work
[12] = parameters: method as in Gaillard et al., 2019; settings: pyrene fluorescence, ref Gaillard et al., 2019, cited from earlier work
[13] = parameters: method as in Gaillard et al., 2019; settings: lipoplexes with pCMV-Gluc, N/P 3, 1 molar equivalent of DOPE; ref Gaillard et al., 2019; cited from earlier work
[14] = test system: sheep RBC; experiment: Hemolytic activity, red blood cell leakage assay; settings: 37°C
Experimental: To evaluate this hypothesis, the hemolytic activity of the APLs and pro-APLs was measured. Sheep RBC were incubated for 1 h with escalating doses of aqueous dispersion of the compounds at 37°C. At the end of the incubation period, hemoglobin leakage was determined spectrophotometrically.
Thus, in order to better characterize the hemolytic effect of the pro-APLs, the incubation period has been extended and release of hemoglobin was measured after 24 h.
Red blood cell (RBC) leakage assay was carried out according to a previously described procedure
(Evans et al, 2013). RBC were prepared from defibrinated sheep blood. Briefly, blood sample (5 mL) was centrifuged at 500 x g for 5 min. After removal of the yellow upper layer, an equal volume of

[15] = Homo sapiens, NCI-H292, H292, 24 h at 37°C
[16] = HEPES buffer with Triton X-100, pH 7.4
[17] = potassium acetate/acetic acid buffer with Triton X-100, pH 4.5

Row | Molecule | CMC (APLs) / CAC (pro-APLs) [1] [µM] | Particle size of lipoplexes [3] [nm] | H120 (hydrolysis rate after a 120-h incubation period) ([5]; pH 4.5) [%] | H120 (hydrolysis rate after a 120-h incubation period) ([5]; pH 7.4) [%] | HA200 (hemolytic activity at 200 μM) ([14]; 24 h) [%] | IC50 ([2]; Homo sapiens) [µM] | IC50 ([4]; Homo sapiens) [µM] | IC50 [6, 15] [µM] | further results
1 | 3-((((((Dodecyloxy)carbonyl)oxy)methoxy)(hexadecyloxy)phosphoryl)oxy)-N,N,N-trimethylpropan-1- aminium chloride [MC12] | 4.1 ± 2.5 | 186 ± 48 | 3 | 11 | – | – | – | – | IC50 [2]: 62 ± 15 µM; IC50 [4]: 151 ± 42 µM; IC50 ([6]; H292, 24 h at 37°C): 81 ± 29 µM
2 | 3-((((((Dodecyloxy)carbonyl)oxy)methoxy)(octadecyloxy)phosphoryl)oxy)-N,N,N-trimethylpropan-1-aminium chloride [PC12] | 4.5 ± 1.6 | 576 ± 41 | 6 | 6 | – | – | – | – | IC50 [2]: 82 ± 33 µM; IC50 [4]: 89 ± 24 µM; IC50 ([6]; H292, 24 h at 37°C): 73 ± 17 µM
3 | CCCCCCCC/C=C\CCCCCCCCCCCCOP(=O)(OCCCCCCCCCCCC)OCCC[N+](C)(C)C (stereo not drawn) [Compound E12] | – | – | – | – | – | – | – | – | IC50 [7]: 225 ± 31 µM; H120 (hydrolysis rate after a 120-h incubation period) ([8]; pH 4.5): 0%; H120 (hydrolysis rate after a 120-h incubation period) ([8]; pH 7.4): 0%; Hydrolytic stability after extended incubation ([8]; pH 7.4 and pH 4.5, 31 days): fully stable; IC50 [9]: 81 ± 7 µM; HA200 (hemolytic activity at 200 μM) ([10]; sheep RBC, 1 h, 37°C, ref Gaillard et al., 2019): 1.9 ± 0.7%; HA200 (hemolytic activity at 200 μM) ([10]; sheep RBC, 24 h, 37°C, ref Gaillard et al., 2019): 12.0 ± 1.9%; IC50 [11]: 124 ± 11 µM; CMC (APLs) / CAC (pro-APLs) [12]: 0.7 ± 0.3 µM; Particle size of lipoplexes [13]: 194 ± 28 nm and 194 nm
4 | CCCCCCCCCCCCCCCCOP(=O)(OCCCCCCCCCCCC)OCC[N+](C)(C)C (stereo not drawn) [Compound M12, 2-(((Dodecyloxy)(hexadecyloxy)phosphoryl)oxy)-N,N,N-trimethylethan-1-aminium triflate] | 1.1 ± 0.6 | 121 ± 13 | 0 | 0 | 63.9 ± 8.1 | 107 ± 14 | 46 ± 11 | 56 ± 7 | HA200 (hemolytic activity at 200 μM) ([14]; 1 h): 13.1 ± 1.0%; Hydrolytic stability after extended incubation [5]: fully stable
5 | CCCCCCCCCCCCCCCCCCOP(=O)(OCCCCCCCCCCCC)OC1CC[N+](C)(C)CC1.[Cl-] (stereo not drawn) [Compound P12, 4-(((Dodecyloxy)(octadecyloxy)phosphoryl)oxy)-1,1-dimethylpiperidin-1-ium chloride] | 1.2 ± 0.4 | 348 ± 43 | 0 | 0 | 35.7 ± 4.1 | 72 ± 7 | 56 ± 7 | 63 ± 5 | HA200 (hemolytic activity at 200 μM) ([14]; 1 h): 8.1 ± 0.9%; Hydrolytic stability after extended incubation [5]: fully stable
6 | CCCCCCCCCCCCCCCCOP(=O)(OCC[N+](C)(C)C)OC(C)OC(=O)CCCCCCCCCCC.[Cl-] (stereo not drawn) [M E^′12, 2-(((1-(Dodecanoyloxy)ethoxy)(hexadecyloxy)phosphoryl)oxy)-N,N,N-trimethylethan-1-aminium chloride] | 1.3 ± 0.7 | 86 ± 3 | 91 | 89 | 101.7 ± 1.8 | 49 ± 6 | 139 ± 32 | 59 ± 10 | half-life [5, 16]: 18 h; half-life [5, 17]: 17 h
7 | CCCCCCCCCCCCCCCCCCOP(=O)(OC1CC[N+](C)(C)CC1)OC(C)OC(=O)CCCCCCCCCCC.[Cl-] (stereo not drawn) [P E^′12, 4-(((1-(Dodecanoyloxy)ethoxy)(octadecyloxy)phosphoryl)oxy)-1,1-dimethylpiperidin-1-ium chloride] | 2.3 ± 1.4 | 610 ± 54 | 60 | 60 | 80.1 ± 0.2 | 60 ± 5 | 148 ± 38 | 116 ± 25 | half-life [5, 16]: 84 h; half-life [5, 17]: 90 h
8 | CCCCCCCC/C=C\CCCCCCCCOP(=O)(OCCC[N+](C)(C)C)OCOC(=O)OCCCCCCCCCCCC.[Cl-] (stereo not drawn) [PC18:1, 3-((((((Dodecyloxy)carbonyl)oxy)methoxy)(oleyloxy)phosphoryl)oxy)-N,N,N-trimethylpropan-1-aminium chloride] | 2.3 ± 1.0 | 489 ± 130 | – | – | – | 207 ± 49 | 273 ± 69 | 186 ± 42 | –
9 | Erufosine [reference compound] | – | – | – | – | – | – | – | – | IC50 [7]: 19 ± 3 µM; IC50 [9]: 57 ± 8 µM; HA200 (hemolytic activity at 200 μM) [10]: 84.9 ± 4.5%; IC50 [11]: 46 ± 8 µM; CMC (APLs) / CAC (pro-APLs) [12]: 1.6 ± 0.5 µM; CMC (APLs) / CAC (pro-APLs) ([12]; listed as erufosine): 1.6 µM
